# ChEMBL document CHEMBL1909046, “DrugMatrix in vitro pharmacology data”
# Key:
# [1] = molecular target: Protein kinase C alpha type (Homo sapiens, UniProt P17252); assay type: cell-based; conditions: sf9;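 also: inhibition of PKCalpha kinase activity measured in an enzyme assay with histone as the phosphorylation substrate; in other assays of this panel Not Active means under 50% inhibition at 10 µM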
# Neutrophil elastase = molecular target: T1, Neutrophil elastase (Homo sapiens, UniProt P08246); assay type: tissue-based;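 also: inhibition of neutrophil elastase enzyme activity, measured with a p-nitroanilide-linked peptide substrate; in other assays of this panel Not Active means under 50% inhibition at 10 µM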
# T1 sequence (P08246 whole entry): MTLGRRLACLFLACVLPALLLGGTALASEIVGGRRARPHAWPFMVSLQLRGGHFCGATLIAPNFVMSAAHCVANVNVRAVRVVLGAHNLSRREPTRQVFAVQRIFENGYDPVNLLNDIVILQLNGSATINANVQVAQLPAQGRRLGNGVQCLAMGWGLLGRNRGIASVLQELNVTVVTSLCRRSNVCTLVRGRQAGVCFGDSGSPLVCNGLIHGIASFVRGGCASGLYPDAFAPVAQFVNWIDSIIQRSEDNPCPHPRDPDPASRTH
# [2] = molecular target: T2, Alpha-1A adrenergic receptor (Rattus norvegicus, UniProt P43140); assay: DRUGMATRIX: Alpha-1A adrenergic receptor radioligand binding (ligand: prazosin); assay type: cell membranes, Wistar, Submaxillary gland, Membrane; conditions: Not Active = under 50% inhibition at 10 µM; for Ki: read-out: Ki
# T2 sequence (P43140 whole entry): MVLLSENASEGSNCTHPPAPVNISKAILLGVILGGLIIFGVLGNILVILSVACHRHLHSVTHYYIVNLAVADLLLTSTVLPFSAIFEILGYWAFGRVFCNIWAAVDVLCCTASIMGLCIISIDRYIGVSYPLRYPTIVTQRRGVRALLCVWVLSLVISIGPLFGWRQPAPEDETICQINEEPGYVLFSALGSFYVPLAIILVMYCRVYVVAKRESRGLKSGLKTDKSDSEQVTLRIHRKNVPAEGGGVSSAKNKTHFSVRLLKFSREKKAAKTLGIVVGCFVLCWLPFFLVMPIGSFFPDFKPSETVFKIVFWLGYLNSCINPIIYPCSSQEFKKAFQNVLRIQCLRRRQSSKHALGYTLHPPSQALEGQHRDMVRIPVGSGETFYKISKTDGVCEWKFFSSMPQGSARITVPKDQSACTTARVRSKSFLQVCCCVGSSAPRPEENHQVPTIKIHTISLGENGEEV
# Carbonic anhydrase 2 = Carbonic anhydrase 2 (Homo sapiens, UniProt P00918); assay: DRUGMATRIX: Carbonic Anhydrase II enzyme inhibition (substrate: 4-Nitrophenyl acetate (4-NPA)); assay type: tissue-based, Erythrocyte; conditions: erythrocyte; Not Active = under 50% inhibition at 10 µM
# Cytochrome P450 2D6 = Cytochrome P450 2D6 (Homo sapiens, UniProt P10635); conditions: bti-tn-5b1-4; also: in other assays of this panel Not Active means under 50% inhibition at 10 µM
# Chain of Cytochrome P450 2D6 (P10635 whole entry): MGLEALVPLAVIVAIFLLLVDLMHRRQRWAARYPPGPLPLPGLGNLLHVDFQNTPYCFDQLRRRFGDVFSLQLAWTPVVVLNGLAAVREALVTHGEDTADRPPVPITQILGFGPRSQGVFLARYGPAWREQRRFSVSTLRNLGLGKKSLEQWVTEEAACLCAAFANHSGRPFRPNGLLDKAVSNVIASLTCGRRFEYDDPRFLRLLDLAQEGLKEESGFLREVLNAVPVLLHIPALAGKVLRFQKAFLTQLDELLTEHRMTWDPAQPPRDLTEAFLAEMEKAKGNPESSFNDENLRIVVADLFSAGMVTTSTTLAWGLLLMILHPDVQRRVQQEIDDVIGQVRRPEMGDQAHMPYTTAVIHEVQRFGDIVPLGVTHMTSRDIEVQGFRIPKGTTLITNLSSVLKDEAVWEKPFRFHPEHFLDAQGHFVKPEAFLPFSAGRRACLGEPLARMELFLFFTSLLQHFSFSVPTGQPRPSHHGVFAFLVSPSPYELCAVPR
# [3] = molecular target: T3, Muscarinic acetylcholine receptor M4 (Homo sapiens, UniProt P08173); assay type: cell membranes, CHO-K1, Membrane; conditions: for Ki: read-out: Ki; as to all read-outs here: in other assays of this panel Not Active means under 50% inhibition at 10 µM
# T3 sequence (P08173 whole entry): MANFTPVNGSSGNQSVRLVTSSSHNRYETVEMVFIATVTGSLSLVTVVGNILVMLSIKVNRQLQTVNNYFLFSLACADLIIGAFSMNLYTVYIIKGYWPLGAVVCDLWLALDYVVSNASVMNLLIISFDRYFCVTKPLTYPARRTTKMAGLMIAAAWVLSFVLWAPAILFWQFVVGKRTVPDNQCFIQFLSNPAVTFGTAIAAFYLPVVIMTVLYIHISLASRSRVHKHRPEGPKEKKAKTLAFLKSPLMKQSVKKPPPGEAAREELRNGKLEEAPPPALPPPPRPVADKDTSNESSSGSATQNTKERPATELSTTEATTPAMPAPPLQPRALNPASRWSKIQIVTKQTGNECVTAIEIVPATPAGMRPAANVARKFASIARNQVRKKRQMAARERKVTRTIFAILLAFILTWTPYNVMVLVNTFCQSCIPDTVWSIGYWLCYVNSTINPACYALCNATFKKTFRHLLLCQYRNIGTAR
# [4] = molecular target: Mitogen-activated protein kinase 1 (Homo sapiens, UniProt P28482); assay: DRUGMATRIX: Protein Serine/Threonine Kinase, ERK2 enzyme inhibition (substrate: Myelin Basic Protein); parameters: species or system Escherichia coli; conditions: Not Active = under 50% inhibition at 10 µM
# Chain of Mitogen-activated protein kinase 1 (P28482 whole entry): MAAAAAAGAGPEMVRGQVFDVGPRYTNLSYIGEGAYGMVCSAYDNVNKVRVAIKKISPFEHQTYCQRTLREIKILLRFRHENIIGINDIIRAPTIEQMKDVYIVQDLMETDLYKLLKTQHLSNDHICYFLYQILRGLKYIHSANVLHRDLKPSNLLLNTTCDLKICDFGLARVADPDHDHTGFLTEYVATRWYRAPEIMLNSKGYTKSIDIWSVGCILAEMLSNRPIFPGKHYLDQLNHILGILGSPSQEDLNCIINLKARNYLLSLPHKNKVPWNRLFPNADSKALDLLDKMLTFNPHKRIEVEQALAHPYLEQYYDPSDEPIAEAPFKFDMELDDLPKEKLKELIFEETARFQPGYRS
SMILES,IC50 [1],IC50 (Neutrophil elastase),IC50 [2],IC50 (Carbonic anhydrase 2),IC50 (Cytochrome P450 2D6),Ki (Cytochrome P450 2D6),IC50 ([3]; cho-k1),IC50 [4],IC50 ([2]; read-out: IC50) [nM],Ki [2] [nM],IC50 ([4]; read-out: IC50) [nM],IC50 ([3]; read-out: IC50) [nM],Ki [3] [nM]
CC(C)(C)NCC(O)c1cc(Cl)c(N)c(Cl)c1 (centres undefined) [CLENBUTEROL],Not Active,Not Active,Not Active,Not Active,Not Active,Not Active,Not Active,Not Active,–,–,–,–,–
CC(O)CO (centres undefined) [PROPYLENE GLYCOL],Not Active,Not Active,Not Active,Not Active,Not Active,Not Active,Not Active,Not Active,–,–,–,–,–
CC1Cc2ccccc2N1NC(=O)c1ccc(Cl)c(S(N)(=O)=O)c1 (centres undefined) [INDAPAMIDE],Not Active,Not Active,Not Active,Not Active,Not Active,Not Active,Not Active,Not Active,–,–,–,–,–
c1ccc(Nc2ccc(Nc3ccccc3)cc2)cc1,Not Active,Not Active,Not Active,Not Active,Not Active,Not Active,Not Active,Not Active,–,–,–,–,–
COc1cc2nc(N3CCN(C(=O)C4COc5ccccc5O4)CC3)nc(N)c2cc1OC (centres undefined) [DOXAZOSIN],Not Active,Not Active,–,Not Active,Not Active,Not Active,Not Active,Not Active,1.55,0.628,–,–,–
CCOc1ccc(NC(C)=O)cc1 [PHENACETIN],Not Active,Not Active,Not Active,Not Active,Not Active,Not Active,Not Active,Not Active,–,–,–,–,–
CN(C)CCCN1c2ccccc2Sc2ccc(Cl)cc21 [CHLORPROMAZINE],Not Active,Not Active,–,Not Active,–,–,–,Not Active,–,–,–,–,–
CC(C)[C@H]1C(=O)N2CCC[C@H]2[C@]2(O)O[C@](NC(=O)[C@@H]3C=C4c5cccc6[nH]cc(c56)C[C@H]4N(C)C3)(C(C)C)C(=O)N12 [ERGOCORNINE],Not Active,Not Active,–,Not Active,Not Active,Not Active,Not Active,Not Active,11,4.47,–,–,–
CC(C)(Oc1ccc(Cl)cc1)C(=O)O [CLOFIBRIC ACID],Not Active,Not Active,Not Active,Not Active,–,–,Not Active,Not Active,–,–,–,–,–
CCC(C)n1ncn(-c2ccc(N3CCN(c4ccc(OCC5COC(Cn6cncn6)(c6ccc(Cl)cc6Cl)O5)cc4)CC3)cc2)c1=O (centres undefined) [ITRACONAZOLE],Not Active,Not Active,Not Active,Not Active,Not Active,Not Active,Not Active,Not Active,–,–,–,–,–
O=c1oc2ccccc2c(O)c1Cc1c(O)c2ccccc2oc1=O [DICUMAROL],Not Active,Not Active,Not Active,Not Active,Not Active,Not Active,Not Active,–,–,–,4430,–,–
"Cc1onc(O)c1CC(N)C(=O)O (racemic) [(R,S)-AMPA]",Not Active,Not Active,Not Active,Not Active,Not Active,Not Active,Not Active,Not Active,–,–,–,–,–
CC1=C2C(=CO[C@H](C)[C@H]2C)C(O)=C(C(=O)O)C1=O [CITRININ],Not Active,Not Active,Not Active,Not Active,Not Active,Not Active,Not Active,Not Active,–,–,–,–,–
Nc1nc2c(ncn2COCCO)c(=O)[nH]1 [ACYCLOVIR],Not Active,Not Active,Not Active,Not Active,Not Active,Not Active,Not Active,Not Active,–,–,–,–,–
CCOC(=O)C1=C(COCCN)NC(C)=C(C(=O)OC)C1c1ccccc1Cl (centres undefined) [AMLODIPINE],Not Active,Not Active,Not Active,Not Active,Not Active,Not Active,Not Active,Not Active,–,–,–,–,–
Cc1ccc(N(CC2=NCCN2)c2cccc(O)c2)cc1 [PHENTOLAMINE],Not Active,Not Active,–,Not Active,–,–,Not Active,Not Active,–,–,–,–,–
C1CCC(C(CC2CCCCN2)C2CCCCC2)CC1 (centres undefined) [PERHEXILINE],Not Active,Not Active,Not Active,Not Active,–,–,–,Not Active,–,–,–,3590,501
CC(C)CN(C[C@@H](O)[C@H](Cc1ccccc1)NC(=O)O[C@H]1CCOC1)S(=O)(=O)c1ccc(N)cc1,Not Active,Not Active,Not Active,Not Active,–,–,Not Active,Not Active,–,–,–,–,–
CN(C)C(=O)Oc1cc(OC(=O)N(C)C)cc(C(O)CNC(C)(C)C)c1 (centres undefined) [BAMBUTEROL],Not Active,Not Active,Not Active,Not Active,–,–,Not Active,Not Active,–,–,–,–,–
Cc1ccc(-c2cc(C(F)(F)F)nn2-c2ccc(S(N)(=O)=O)cc2)cc1 [CELECOXIB],Not Active,Not Active,Not Active,–,–,–,Not Active,Not Active,–,–,–,–,–
Clc1cccc(Cl)c1NC1=NCCN1 [CLONIDINE],Not Active,Not Active,–,Not Active,Not Active,Not Active,Not Active,Not Active,–,–,–,–,–
CCCCN1CCCC[C@H]1C(=O)Nc1c(C)cccc1C [LEVOBUPIVACAINE],Not Active,Not Active,Not Active,Not Active,–,–,Not Active,Not Active,–,–,–,–,–
CC1(C)S[C@@H]2[C@H](NC(=O)Cc3ccccc3)C(=O)N2[C@H]1C(=O)O [PENICILLIN G],Not Active,Not Active,Not Active,Not Active,–,–,Not Active,Not Active,–,–,–,–,–
CN(Cc1ccc(C(C)(C)C)cc1)Cc1cccc2ccccc12 [BUTENAFINE],Not Active,Not Active,Not Active,Not Active,–,–,Not Active,Not Active,–,–,–,–,–
N=C(N)NCCN1CCCCCCC1 [GUANETHIDINE],Not Active,Not Active,Not Active,Not Active,–,–,Not Active,Not Active,–,–,–,–,–
Nc1c(Br)cc(Br)cc1CN[C@H]1CC[C@H](O)CC1 [AMBROXOL],Not Active,Not Active,Not Active,Not Active,–,–,Not Active,Not Active,–,–,–,–,–
C[C@]12CC[C@@H]3c4ccc(O)cc4CC[C@H]3[C@@H]1CCC2=O [ESTRONE],Not Active,Not Active,Not Active,Not Active,–,–,Not Active,Not Active,–,–,–,–,–
CN(C)CCCN1c2ccccc2Sc2ccccc21 [PROMAZINE],Not Active,Not Active,–,Not Active,–,–,–,Not Active,9.24,3.74,–,299,42
CN(C)c1nc(N(C)C)nc(N(C)C)n1 [ALTRETAMINE],Not Active,Not Active,Not Active,Not Active,–,–,Not Active,Not Active,–,–,–,–,–
CCCN1C[C@H](CSC)C[C@@H]2c3cccc4[nH]cc(c34)C[C@H]21 [PERGOLIDE],Not Active,Not Active,–,Not Active,–,–,Not Active,Not Active,1930,781,–,–,–
